According to US9302999B2, “Substituted triazoles as herbicides” (E. I. DU PONT DE NEMOURS AND COMPANY, priority 2012, dated 2016):

Assays:
Assay type in all cases: in vivo
[1] = test system: crabgrass, large (large crabgrass, Digitaria sanguinalis); test: Test A pre-/postemergence: crabgrass, large
Procedure, shortened: (§1)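 Rating scale 0–100 (100 = complete control), visual, ~10 days after application in the greenhouse. Applications: preemergence directed soil spray; postemergence at 1–2 leaves.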

[2] = test system: foxtail, giant (giant foxtail, Setaria faberii); test: Test A pre-/postemergence: foxtail, giant
Procedure, shortened: as §1

[3] = test system: wheat (Triticum aestivum); test: Test A pre-/postemergence: wheat
Procedure, shortened: as §1

corn (Zea mays) = test: Test A pre-/postemergence: corn
Procedure, shortened: as §1

[4] = test system: sedge, umbrella (small-flower umbrella sedge Cyperus difformis); test: Test B flooded paddy: sedge, umbrella; conditions: Flood; 250 g ai/ha; applied to paddy water at 2-leaf stage; visually evaluated after 13 to 15 days
Procedure, shortened: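 Flooded-pot test: compound dosed into 3 cm of standing water above soil when plants had two leaves. Visual control ratings (0–100) versus untreated plants after 13–15 d.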

[5] = test system: ryegrass, Italian (Italian ryegrass, Lolium multiflorum); test: Test C pre-/postemergence: ryegrass, Italian
Procedure, shortened: (§2)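 Preemergence on seeds in loam/sand, postemergence on 2–18 cm (1–4-leaf) plants in peat-based medium; compounds in non-phytotoxic solvent with surfactant. After 13–15 days in greenhouse, visual rating versus controls, 0 (no effect) to 100 (complete control).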

[6] = test system: johnsongrass (Sorghum halepense); test: Test C pre-/postemergence: johnsongrass
Procedure, shortened: as §2

[7] = test system: lambsquarters (Chenopodium album); test: Test C pre-/postemergence: lambsquarters
Procedure, shortened: as §2

[8] = test system: velvetleaf (Abutilon theophrasti); test: Test C pre-/postemergence: velvetleaf
Procedure, shortened: as §2

[9] = Postemergence, 125 g ai/ha, 0 to 100 scale, 0 is no effect, 100 is complete control
[10] = Postemergence, 500 g ai/ha, visual rating on 0 to 100 scale (0 no effect, 100 complete control), approximately ten days
[11] = Preemergence, 125 g ai/ha, 0 to 100 scale where 0 is no effect and 100 is complete control
[12] = Preemergence, 500 g ai/ha, 0 to 100 scale (0 no effect, 100 complete control)
[13] = Postemergence, 31 g ai/ha, scale 0 to 100 (0 no effect, 100 complete control)
[14] = Postemergence, 62 g ai/ha, scale 0 to 100 (0 no effect, 100 complete control)
[15] = Postemergence, 125 g ai/ha, scale 0 to 100, 0 no effect, 100 complete control
[16] = Postemergence, 250 g ai/ha, scale 0 to 100
[17] = Preemergence, 31 g ai/ha, scale of 0 to 100, 0 is no effect, 100 is complete control
[18] = Preemergence, 62 g ai/ha, scale of 0 to 100, 0 is no effect, 100 is complete control
[19] = Preemergence, 125 g ai/ha, scale 0 to 100, 0 no effect, 100 complete control
[20] = Preemergence, 250 g ai/ha, scale 0 to 100, 0 no effect, 100 complete control
[21] = Postemergence, 500 g ai/ha, 0 to 100 scale, 0 is no effect, 100 is complete control
[22] = Postemergence, 250 g ai/ha, scale 0 to 100 (0 no effect, 100 complete control)
[23] = Preemergence, 31 g ai/ha, scale 0 (no effect) to 100 (complete control)
[24] = Postemergence, 16 g ai/ha, scale 0 to 100, 0 no effect, 100 complete control
[25] = Preemergence, 16 g ai/ha, scale 0 (no effect) to 100 (complete control)

Cc1nn(-c2ccc(C(F)(F)F)c(F)c2)nc1Oc1ccnc(C(F)(F)F)c1 [Compound 148]
Crabgrass, Large plant response rating [1, 9]: 80 | Crabgrass, Large plant response rating [1, 10]: 80 | Plant response rating, Crabgrass, Large [1, 11]: 100 | Plant response rating, Crabgrass, Large [1, 12]: 100 | Foxtail, Giant plant response rating [2, 9]: 80 | Foxtail, Giant plant response rating [2, 10]: 80 | Plant response rating, Foxtail, Giant [2, 11]: 100 | Plant response rating, Foxtail, Giant [2, 12]: 100 | Plant response rating, Wheat [3, 9]: 20 | Wheat plant response rating [3, 10]: 40 | Plant response rating, Wheat [3, 11]: 30 | Plant response rating, Wheat [3, 12]: 50 | Corn plant response rating (corn (Zea mays); [9]): 20 | Corn plant response rating (corn (Zea mays); [10]): 40 | Plant response rating, Corn (corn (Zea mays); [11]): 10 | Plant response rating, Corn (corn (Zea mays); [12]): 20 | Plant response rating, Sedge, Umbrella (0 to 100 scale, 0 is no effect, 100 is complete control) [4]: 85 | Plant response rating, Ryegrass, Italian [5, 13]: 10 | Plant response rating, Ryegrass, Italian [5, 14]: 35 | Plant response rating, Ryegrass, Italian [5, 15]: 60 | Plant response rating, Ryegrass, Italian [5, 16]: 65 | Plant response rating, Ryegrass, Italian [5, 17]: 5 | Plant response rating, Ryegrass, Italian [5, 18]: 60 | Plant response rating, Ryegrass, Italian [5, 19]: 60 | Plant response rating, Ryegrass, Italian [5, 20]: 90 | Plant response rating, Johnsongrass [6, 13]: 20 | Plant response rating, Johnsongrass [6, 14]: 20 | Plant response rating, Johnsongrass [6, 15]: 55 | Plant response rating, Johnsongrass [6, 16]: 98 | Plant response rating, Johnsongrass [6, 17]: 15 | Plant response rating, Johnsongrass [6, 18]: 80 | Plant response rating, Johnsongrass [6, 19]: 98 | Plant response rating, Johnsongrass [6, 20]: 98 | Plant response rating, Lambsquarters [7, 13]: 98 | Plant response rating, Lambsquarters [7, 14]: 98 | Plant response rating, Lambsquarters [7, 15]: 98 | Plant response rating, Lambsquarters [7, 16]: 98 | Plant response rating, Lambsquarters [7, 17]: 15 | Plant response rating, Lambsquarters [7, 18]: 25 | Plant response rating, Lambsquarters [7, 19]: 65 | Plant response rating, Lambsquarters [7, 20]: 85 | Plant response rating, Velvetleaf [8, 13]: 50 | Plant response rating, Velvetleaf [8, 14]: 50 | Plant response rating, Velvetleaf [8, 15]: 80 | Plant response rating, Velvetleaf [8, 16]: 85 | Plant response rating, Velvetleaf [8, 17]: 15 | Plant response rating, Velvetleaf [8, 18]: 55 | Plant response rating, Velvetleaf [8, 19]: 70 | Plant response rating, Velvetleaf [8, 20]: 80

CCCc1nn(-c2ccc(F)cc2)nc1Oc1ccnc(C(F)(F)F)c1 [Compound 168]
Plant response rating, Crabgrass, Large [1, 9]: 90 | Crabgrass, Large plant response rating [1, 21]: 90 | Plant response rating, Crabgrass, Large [1, 11]: 100 | Plant response rating, Crabgrass, Large [1, 12]: 100 | Plant response rating, Foxtail, Giant [2, 9]: 90 | Foxtail, Giant plant response rating [2, 21]: 90 | Plant response rating, Foxtail, Giant [2, 11]: 100 | Plant response rating, Foxtail, Giant [2, 12]: 100 | Plant response rating, Wheat [3, 9]: 40 | Wheat plant response rating [3, 21]: 50 | Plant response rating, Wheat [3, 11]: 40 | Plant response rating, Wheat [3, 12]: 60 | Plant response rating, Corn (corn (Zea mays); [9]): 20 | Corn plant response rating (corn (Zea mays); [21]): 50 | Plant response rating, Corn (corn (Zea mays); [11]): 20 | Plant response rating, Corn (corn (Zea mays); [12]): 40 | Plant response rating, Sedge, Umbrella (0 to 100 scale, 0 is no effect, 100 is complete control) [4]: 85 | Plant response rating, Ryegrass, Italian [5, 13]: 10 | Plant response rating, Ryegrass, Italian [5, 14]: 35 | Plant response rating, Ryegrass, Italian [5, 15]: 60 | Plant response rating, Ryegrass, Italian [5, 22]: 80 | Plant response rating, Ryegrass, Italian [5, 23]: 70 | Plant response rating, Ryegrass, Italian [5, 18]: 98 | Plant response rating, Ryegrass, Italian [5, 19]: 100 | Plant response rating, Ryegrass, Italian [5, 20]: 100 | Plant response rating, Johnsongrass [6, 13]: 30 | Plant response rating, Johnsongrass [6, 14]: 55 | Plant response rating, Johnsongrass [6, 15]: 70 | Plant response rating, Johnsongrass [6, 22]: 75 | Plant response rating, Johnsongrass [6, 23]: 75 | Plant response rating, Johnsongrass [6, 18]: 98 | Plant response rating, Johnsongrass [6, 19]: 100 | Plant response rating, Johnsongrass [6, 20]: 100 | Plant response rating, Lambsquarters [7, 13]: 80 | Plant response rating, Lambsquarters [7, 14]: 95 | Plant response rating, Lambsquarters [7, 15]: 95 | Plant response rating, Lambsquarters [7, 22]: 95 | Plant response rating, Lambsquarters [7, 23]: 98 | Plant response rating, Lambsquarters [7, 18]: 98 | Plant response rating, Lambsquarters [7, 19]: 98 | Plant response rating, Lambsquarters [7, 20]: 98 | Plant response rating, Velvetleaf [8, 13]: 60 | Plant response rating, Velvetleaf [8, 14]: 75 | Plant response rating, Velvetleaf [8, 15]: 80 | Plant response rating, Velvetleaf [8, 22]: 90 | Plant response rating, Velvetleaf [8, 23]: 80 | Plant response rating, Velvetleaf [8, 18]: 100 | Plant response rating, Velvetleaf [8, 19]: 100 | Plant response rating, Velvetleaf [8, 20]: 100

FCc1nn(-c2ccc(F)cc2)nc1Oc1ccnc(C(F)(F)F)c1 [Compound 160]
Plant response rating, Crabgrass, Large [1, 9]: 90 | Crabgrass, Large plant response rating [1, 10]: 90 | Plant response rating, Crabgrass, Large [1, 11]: 100 | Plant response rating, Crabgrass, Large [1, 12]: 100 | Plant response rating, Foxtail, Giant [2, 9]: 90 | Foxtail, Giant plant response rating [2, 10]: 90 | Plant response rating, Foxtail, Giant [2, 11]: 100 | Plant response rating, Foxtail, Giant [2, 12]: 100 | Plant response rating, Wheat [3, 9]: 40 | Wheat plant response rating [3, 10]: 50 | Plant response rating, Wheat [3, 11]: 30 | Plant response rating, Wheat [3, 12]: 50 | Plant response rating, Corn (corn (Zea mays); [9]): 30 | Corn plant response rating (corn (Zea mays); [10]): 60 | Plant response rating, Corn (corn (Zea mays); [11]): 20 | Plant response rating, Corn (corn (Zea mays); [12]): 40 | Plant response rating, Sedge, Umbrella (0 to 100 scale, 0 is no effect, 100 is complete control) [4]: 85 | Plant response rating, Ryegrass, Italian [5, 24]: 10 | Plant response rating, Ryegrass, Italian [5, 13]: 30 | Plant response rating, Ryegrass, Italian [5, 14]: 30 | Plant response rating, Ryegrass, Italian [5, 15]: 45 | Plant response rating, Ryegrass, Italian [5, 25]: 5 | Plant response rating, Ryegrass, Italian [5, 17]: 15 | Plant response rating, Ryegrass, Italian [5, 18]: 80 | Plant response rating, Ryegrass, Italian [5, 19]: 90 | Plant response rating, Johnsongrass [6, 24]: 10 | Plant response rating, Johnsongrass [6, 13]: 15 | Plant response rating, Johnsongrass [6, 15]: 30 | Plant response rating, Johnsongrass [6, 25]: 85 | Plant response rating, Johnsongrass [6, 17]: 100 | Plant response rating, Johnsongrass [6, 18]: 100 | Plant response rating, Johnsongrass [6, 19]: 100 | Plant response rating, Lambsquarters [7, 24]: 70 | Plant response rating, Lambsquarters [7, 13]: 80 | Plant response rating, Lambsquarters [7, 14]: 95 | Plant response rating, Lambsquarters [7, 15]: 95 | Plant response rating, Lambsquarters [7, 25]: 95 | Plant response rating, Lambsquarters [7, 17]: 100 | Plant response rating, Lambsquarters [7, 18]: 100 | Plant response rating, Lambsquarters [7, 19]: 100 | Plant response rating, Velvetleaf [8, 24]: 20 | Plant response rating, Velvetleaf [8, 13]: 30 | Plant response rating, Velvetleaf [8, 14]: 50 | Plant response rating, Velvetleaf [8, 15]: 75 | Plant response rating, Velvetleaf [8, 25]: 0 | Plant response rating, Velvetleaf [8, 17]: 5 | Plant response rating, Velvetleaf [8, 18]: 30 | Plant response rating, Velvetleaf [8, 19]: 30
